The record followed here is patent publication US9636317B2, “Compositions and methods of use of phorbol esters” (priority 2007, dated 2017).

In one experiment the test system is HIV. The class given is in vivo. The settings on record: for HIV: antiretroviral therapy stopped, one value per patient. The protocol:
Six patients, two males and four females between the ages of 37 and 52 years of age (Patients #13-18), were treated with TPA. Four of these patients previously received TPA treatment in combination with anti-HIV drugs in the two previous clinical studies. […] All treatments were stopped three days prior to the initiation of the third clinical study and were not resumed until 60 days after completion of the TPA treatment. The resumption of the standard HIV treatments was required by local health authorities.
Each patient in the study received 150 μg of TPA in 200 ml of sterile saline by intravenous infusion over a 1.5 to 2 hour period daily for 60 days for a total administered dose of 9.0 mg. Following completion of the 60 days of TPA therapy, these patients remained under observation for an additional 60 days though the received no further treatment.
CD3, CD4 and CD8 levels in peripheral blood were quantitated prior to starting treatment, and again at 30 and 60 days using flow cytometry and the appropriate antibodies obtained from B.D. Bioscience, San Diego, Calif. Viral load was determined using conventional methods at Kuang Ann men Hospital, Beijing, China. Patients RBC, WBC, platelets and hemoglobin levels were also measured.

A short description of experiment [1]: Treatment of urinary incontinence (patient cases). It is filed as in vivo, human. An excerpt:
Patient twelve has suffered from urinary incontinence for more than 30 years.
Patient one has suffered from urinary incontinence for fifteen years.

Experiment [2] in a line: Treatment of rheumatoid arthritis (patient case). The class given is in vivo, human. As to conditions: multiple injections of TPA.

Where “and” joins values, the source holds several entries; their conditions need not be identical. Equal values may be shown once. Entries after “also recorded” stand apart in the source; their conditions may differ. Read-outs that look alike come from different tables or passages of the source.

For `CCCCCCCCCCCCCC(=O)O[C@@H]1[C@@H](C)[C@@]2(O)[C@@H](C=C(CO)C[C@]3(O)C(=O)C(C)=C[C@@H]23)[C@@H]2C(C)(C)[C@]12OC(C)=O` [TPA, 12-O-tetradecanoylphorbol-13-acetate], the HIV with HIV (Sixty Days After TPA) was 0.038 copies/ml (All Figures in Mill and Undetectable (2×) and 0.012 copies/ml (All Figures in Mill and 0.056 copies/ml (All Figures in Mill and 0.133 copies/ml (All Figures in Mill; in the experiment on HIV (Thirty Days After TPA), 0.353 copies/ml (All Figures in Mill and 1.99 copies/ml (All Figures in Mill and 1.28 copies/ml (All Figures in Mill and 0.152 copies/ml (All Figures in Mill and 0.174 copies/ml (All Figures in Mill and 0.533 copies/ml (All Figures in Mill. Moreover, the “viral load rebound after discontinuation of antiretroviral therapy” value in the experiment on HIV (six patients, 150 μg TPA daily for 60 days) is given as “no rebound in viral levels; also recorded: no viral load rebound”. Besides, the urinary frequency entry in experiment [1] (nine injections of 0.18 mg of TPA) and in experiment [1] (six injections of 0.18 mg of TPA) was “regained normal urinary frequency” each time. In addition, the “joint stiffness and hand function” value in experiment [2] was “reduction in stiffness in the joints and an increase in functionality in their hands”.
